Assay results from the supplement of paper PMC10307832.

Key:
Experiment in all cases: relative viability (nuclei count vs DMSO), 5 days (fraction); higher = more cells survive
[1] = compound: CC(=O)Nc1cccc(-n2c(=O)n(C3CC3)c(=O)c3c(Nc4ccc(I)cc4F)n(C)c(=O)c(C)c32)c1 [Trametinib] + COc1cccc2cc(-c3nc([C@H]4CC[C@H](C(=O)O)CC4)n4ncnc(N)c34)[nH]c12 [OSI-027] (partner 0.5 µM)
How it was run: (§1)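 Each reported value is a median over duplicate plates. It expresses relative viability: treated-well nuclei count divided by vehicle-well nuclei count. Lung cancer cell lines in 1536-well plates were dosed by pin tool a day after seeding, alone with one drug or with a fixed anchor-drug dose plus five library-drug doses (not always all listed) in √10 steps, and nuclei were counted after 5 days.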

[2] = compound: CC(=O)Nc1cccc(-n2c(=O)n(C3CC3)c(=O)c3c(Nc4ccc(I)cc4F)n(C)c(=O)c(C)c32)c1 [Trametinib] + NC(=O)Nc1cc(-c2cccc(F)c2)sc1C(=O)N[C@H]1CCCNC1 [AZD7762] (partner 0.2 µM)
How it was run: as §1

[3] = compound: CN1C=C(C2=CC=CC=C21)/C=C\3/C4=C(C=CC=N4)NC3=O + Cc1nc(Nc2ncc(C(=O)Nc3c(C)cccc3Cl)s2)cc(N2CCN(CCO)CC2)n1 [Dasatinib] (partner 0.075 µM)
How it was run: as §1

[4] = compound: CN1C=C(C2=CC=CC=C21)/C=C\3/C4=C(C=CC=N4)NC3=O + NC(=O)Nc1cc(-c2cccc(F)c2)sc1C(=O)N[C@H]1CCCNC1 [AZD7762] (partner 0.2 µM)
How it was run: as §1

Cell Line	relative viability ([1]; first compound 0.0025 µM)	relative viability ([1]; first compound 0.007906 µM)	relative viability ([1]; first compound 0.025 µM)	relative viability ([1]; first compound 0.07906 µM)	relative viability ([1]; first compound 0.25 µM)	relative viability ([2]; first compound 0.0025 µM)	relative viability ([2]; first compound 0.007906 µM)	relative viability ([2]; first compound 0.025 µM)	relative viability ([2]; first compound 0.07906 µM)	relative viability ([2]; first compound 0.25 µM)	relative viability ([3]; first compound 0.02 µM)	relative viability ([3]; first compound 0.06325 µM)	relative viability ([3]; first compound 0.2 µM)	relative viability ([3]; first compound 0.6325 µM)	relative viability ([3]; first compound 2 µM)	relative viability ([4]; first compound 0.02 µM)	relative viability ([4]; first compound 0.06325 µM)	relative viability ([4]; first compound 0.2 µM)	relative viability ([4]; first compound 0.6325 µM)	relative viability ([4]; first compound 2 µM)
201T	0.707	0.642	0.633	0.443	0.505	0.632	0.607	0.473	0.592	0.557	0.587	0.533	0.504	0.531	0.413	0.578	0.662	0.761	0.668	0.658
HCC-78	0.366	0.361	0.313	0.343	0.333	0.661	0.484	0.393	0.427	0.46	0.317	0.578		0.34	0.37	0.502	0.546	0.6	0.608	0.348
NCI-H358	0.393	0.341	0.19	0.174	0.14	0.388	0.39	0.331	0.264	0.292	0.145	0.166	0.174	0.186	0.198	0.531	0.494	0.338	0.488	0.548
H3255	0.595	0.571	0.462	0.397	0.338	0.805	0.736	0.8	0.733	0.505	0.438	0.349	0.323	0.324	0.322	1.02	0.86	0.848	0.954	0.844
LOU-NH91	0.735	0.654	0.568	0.53	0.478	0.769	0.704	0.704	0.676	0.548	0.58	0.501	0.464	0.516	0.466	0.684	0.641	0.402	0.664	0.764
NCI-H1666	0.765	0.811	0.632	0.675	0.552	0.726	0.735	0.669	0.637	0.665	0.892	0.822	0.79	0.758	0.81	0.896	0.79	0.826	0.742	0.871
NCI-H2342	0.56	0.552		0.471	0.577	0.487	0.437	0.318	0.411	0.559	0.316	0.313	0.284	0.304	0.318	0.434	0.459	0.393	0.42	0.406
NCI-H838	0.301	0.298	0.227	0.281	0.236	0.943	0.827	0.858	0.858	0.697	0.146	0.277	0.242	0.27	0.261	0.81	0.753	0.789	0.871	0.632
